{
  "source": "paper PMC9667777",
  "about": "“A fragment-based approach leading to the discovery of inhibitors of CK2α with a novel mechanism of action” (RSC Medicinal Chemistry, 2022)",
  "key": {"HCT116 cells [1]": {"system": "HCT116 cells", "experiment": "cells", "conditions": "Homo sapiens, HCT-116, 72 h, read-out: GI50 HCT116, 72 hours; mean ± SEM from three experiments run in triplicate"}, "HCT116 cells [2]": {"system": "HCT116 cells", "conditions": "read-out: GI50 HCT116; 72 hours; mean ± SEM from three experiments run in triplicate"}, "CK2α [3]": {"biological_target": "T1, CK2α (Homo sapiens, UniProt P68400)", "T1 sequence (P68400 whole entry)": "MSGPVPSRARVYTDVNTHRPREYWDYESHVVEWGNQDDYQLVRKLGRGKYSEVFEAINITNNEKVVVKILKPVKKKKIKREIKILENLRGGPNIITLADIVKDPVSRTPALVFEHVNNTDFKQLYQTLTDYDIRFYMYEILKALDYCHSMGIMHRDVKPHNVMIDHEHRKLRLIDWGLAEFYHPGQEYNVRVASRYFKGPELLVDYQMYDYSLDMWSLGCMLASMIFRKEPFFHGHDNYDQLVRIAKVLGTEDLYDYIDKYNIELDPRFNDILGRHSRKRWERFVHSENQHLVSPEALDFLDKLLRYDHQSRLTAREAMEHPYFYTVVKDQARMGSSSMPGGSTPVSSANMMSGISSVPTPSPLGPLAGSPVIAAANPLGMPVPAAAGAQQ", "experiment": "biochemical", "conditions": "for inhibition at 500 µM: read-out: % inhibition at 500 μM; for inhibition at 1000 µM: read-out: % inhibition at 1 mM; for inhibition at 50 µM: read-out: % inhibition at 50 μM"}, "CK2α [4]": {"biological_target": "T1, CK2α"}, "A549 cells": {"system": "A549 cells", "experiment": "cells", "conditions": "Homo sapiens, 72 h, read-out: GI50 A459"}, "CK2α [5]": {"biological_target": "T1, CK2α", "remark": "listed apart in the source"}, "[6]": {"system": "CK2α-dependent phosphorylation of AKT1 Ser129 and CDC37 Ser13", "conditions": "HCT116 cells"}, "Jurkat cells": {"system": "Jurkat cells", "experiment": "cells", "conditions": "Homo sapiens, 72 h, read-out: GI50 Jurkat"}},
  "note": "“And” between values parts separate entries of the source, which are not always exact repeats. Identical values can stand only once. Like-named read-outs stand apart in the source and are kept apart here.",
  "data": [
    {"smiles": "O=C(O)c1ccc2c(c1)nc(Nc1cccc(Cl)c1)c1ccncc12", "note": "[CX4945, reference compound]", "values": [
      {"measurement": "GI50", "setting": "HCT116 cells [1]", "value": 4.8, "unit": "µM"},
      {"measurement": "GI50", "setting": "HCT116 cells [2]", "value": 4, "unit": "µM"}
    ]},
    {"smiles": "Brc1ccc2[nH]ccc2c1", "note": "[Compound 3]", "values": [
      {"measurement": "inhibition at 500 µM", "setting": "CK2α [3]", "value": "22 ± 5", "unit": "%"},
      {"measurement": "inhibition at 1000 µM", "setting": "CK2α [3]", "value": "50 ± 13", "unit": "%"}
    ]},
    {"smiles": "Clc1cc2[nH]ccc2cc1Br", "note": "[Compound 6]", "values": [
      {"measurement": "Ligand efficiency", "setting": "CK2α [4]", "value": "0.44 and 0.44 kJ mol^−1"},
      {"measurement": "inhibition at 500 µM", "setting": "CK2α [3]", "value": "93 ± 5", "unit": "%"}
    ]},
    {"smiles": "Brc1ccc2[nH]ncc2c1", "note": "[Compound 7]", "values": [
      {"measurement": "Ligand efficiency", "setting": "CK2α [4]", "value": "0.47 and 0.47 kJ mol^−1"},
      {"measurement": "inhibition at 500 µM", "setting": "CK2α [3]", "value": "66 ± 5", "unit": "%"},
      {"measurement": "inhibition at 1000 µM", "setting": "CK2α [3]", "value": "84 ± 6", "unit": "%"}
    ]},
    {"smiles": "N#CCc1c[nH]c2ccc(Br)cc12", "note": "[Compound 8]", "values": [
      {"measurement": "GI50", "setting": "HCT116 cells [1]", "value": "88 ± 7", "unit": "µM"},
      {"measurement": "GI50", "setting": "A549 cells", "value": "29 ± 7", "unit": "µM"},
      {"measurement": "binding to CK2α by CPMG signal", "setting": "CK2α [5]; 500 μM compound + 7 μM CK2α", "value": "binds to CK2α"},
      {"measurement": "binding to CK2α in the presence of CX4945", "setting": "CK2α [5]; 500 μM compound + 50 μM CX4945 + 7 μM CK2α", "value": "significantly reduced"},
      {"measurement": "binding to CK2α in the presence of αD-binder", "setting": "CK2α [5]; 500 μM compound + 500 μM αD-binder + 7 μM CK2α", "value": "largely inhibited"},
      {"measurement": "Ligand efficiency", "setting": "CK2α [4]", "value": "0.44 and 0.44 kcal mol-1 and 0.44 kJ mol^−1"},
      {"measurement": "inhibition at 50 µM", "setting": "CK2α [3]", "value": "32 ± 7", "unit": "%"},
      {"measurement": "inhibition at 500 µM", "setting": "CK2α [3]", "value": "87 ± 11", "unit": "%"},
      {"measurement": "inhibition at 1000 µM", "setting": "CK2α [3]", "value": "105 ± 9", "unit": "%"},
      {"measurement": "inhibition of CK2α-dependent phosphorylation of Ser129 in AKT1", "setting": "[6]; twice the GI50 (170 μM), 24, 48 or 72 hours", "value": "good inhibition"},
      {"measurement": "inhibition of phosphorylation of Ser13 in CDC37", "setting": "[6]; twice the GI50 (170 μM), 48 h", "value": "significantly inhibited"},
      {"measurement": "GI50", "setting": "Jurkat cells", "value": "55 ± 2", "unit": "µM"}
    ]},
    {"smiles": "N#CCc1c[nH]c2cc(Cl)c(Br)cc12", "note": "[Compound 9]", "values": [
      {"measurement": "inhibition at 50 µM", "setting": "CK2α [3]", "value": "103 ± 6", "unit": "%"}
    ]},
    {"smiles": "N#CCc1n[nH]c2ccc(Br)cc12", "note": "[Compound 10]", "values": [
      {"measurement": "inhibition at 50 µM", "setting": "CK2α [3]", "value": "97 ± 3", "unit": "%"}
    ]},
    {"smiles": "N#CCc1c[nH]c2ccc(C(F)(F)F)cc12", "note": "[Compound 14]", "values": [
      {"measurement": "inhibition at 50 µM", "setting": "CK2α [3]", "value": "39 ± 10", "unit": "%"}
    ]},
    {"smiles": "N#CCc1c[nH]c2cc(Br)c(Br)cc12", "note": "[Compound 15]", "values": [
      {"measurement": "inhibition at 50 µM", "setting": "CK2α [3]", "value": "65 ± 10", "unit": "%"}
    ]},
    {"smiles": "N#CCc1n[nH]c2cc(Br)c(Br)cc12", "note": "[Compound 16]", "values": [
      {"measurement": "Ligand efficiency", "setting": "CK2α [4]", "value": 0.53, "unit": "kcal/mol"},
      {"measurement": "inhibition at 50 µM", "setting": "CK2α [3]", "value": "95 ± 4", "unit": "%"}
    ]},
    {"smiles": "N#CCc1n[nH]c2cc(Cl)c(Br)cc12", "note": "[Compound 17]", "values": [
      {"measurement": "Ligand efficiency", "setting": "CK2α [4]", "value": 0.52, "unit": "kcal/mol"},
      {"measurement": "inhibition at 50 µM", "setting": "CK2α [3]", "value": "98 ± 3", "unit": "%"}
    ]},
    {"smiles": "Brc1ccc2[nH]cc(Cc3nccs3)c2c1", "note": "[Compound 18]", "values": [
      {"measurement": "inhibition at 50 µM", "setting": "CK2α [3]", "value": "13 ± 4", "unit": "%"}
    ]},
    {"smiles": "Brc1ccc2[nH]cc(Cc3ccc[nH]3)c2c1", "note": "[Compound 20]", "values": [
      {"measurement": "inhibition at 50 µM", "setting": "CK2α [3]", "value": "8 ± 3", "unit": "%"}
    ]},
    {"smiles": "CCCc1cn(Cc2c[nH]c3ccc(Br)cc23)nn1", "note": "[Compound 21]", "values": [
      {"measurement": "inhibition at 50 µM", "setting": "CK2α [3]", "value": "11 ± 6", "unit": "%"}
    ]},
    {"smiles": "CNCc1c[nH]c2ccc(Br)cc12", "note": "[Compound 22]", "values": [
      {"measurement": "inhibition at 50 µM", "setting": "CK2α [3]", "value": "21 ± 5", "unit": "%"}
    ]},
    {"smiles": "N=C(Cc1c[nH]c2ccc(Br)cc12)NO", "note": "[Compound 23]", "values": [
      {"measurement": "inhibition at 50 µM", "setting": "CK2α [3]", "value": "13 ± 5", "unit": "%"}
    ]}
  ]
}
